According to the OligoGym collection:
After the bases stand the sugars from the 5' end (letter, count) and the backbone: PS all phosphorothioate, else s phosphorothioate and o phosphodiester by linkage. Methylation of C is not given here. e = 2'-O-(2-methoxyethyl) (MOE); k = constrained ethyl (cEt); d = 2'-deoxy (DNA); m = 2'-O-methyl

Biological target: HSD17B13
Settings: ASO, HepaRG

Sequence | target mRNA inhibition (1 µM) | further results
TATTATGTGATTGAGT (sugars kkdddddddddkekek, PS) | 65% | –
TATTCCAGGATTTGCT (sugars k3 d10 k3, PS) | 43% | –
TATTCTCCAACTCAGG (sugars k3 d10 k3, PS) | 54% | –
TATTCTCTTGACAATG (sugars k3 d10 k3, PS) | 47% | –
TATTCTGTGGCATGGC (sugars k3 d9 k3 e1, PS) | 74% | target mRNA inhibition (0.02 µM): 10%; target mRNA inhibition (0.078 µM): 0%; target mRNA inhibition (0.313 µM): 21%; target mRNA inhibition (1.25 µM): 55%; target mRNA inhibition (5 µM): 68%
TATTGATATACGATGG (sugars k3 d10 k3, PS) | 16% | –
TATTGTAGGGATTGAA (sugars k3 d10 k3, PS) | 40% | –
TATTTAGCATTGCCTG (sugars k3 d10 k3, PS) | 12% | –
TCAAAAAGGCCCAAGG (sugars k3 d10 k3, PS) | 46% | –
TCAAAGCCTGTTGGAT (sugars k3 d10 k3, PS) | 35% | –
TCAAAGTTTTGGGACC (sugars k3 d10 k3, PS) | 42% | –
TCACAAAGTCCCTGAC (sugars k3 d10 k3, PS) | 11% | –
TCACCTTATTAATATC (sugars k3 d10 k3, PS) | 0% | –
TCACCTTTCATAATGT (sugars kkdddddddddkekek, PS) | 31% | –
TCATAGTGGACTTCAT (sugars k3 d10 k3, PS) | 36% | –
TCATATCCAGTAGGTG (sugars k3 d10 k3, PS) | 32% | –
TCATCCTTGGTGCTGA (sugars k3 d10 k3, PS) | 12% | –
TCATTATAAGCTAACT (sugars k3 d10 k3, PS) | 0% | –
TCCAATATATACTGAC (sugars k3 d10 k3, PS) | 72% | –
TCCACTTGAATTCTGT (sugars k3 d10 k3, PS) | 32% | –
TCCACTTTTGGTGGAC (sugars k3 d10 k3, PS) | 16% | –
TCCATAAAGCTGGATT (sugars k3 d10 k3, PS) | 13% | –
TCCCAACCAAACTTCC (sugars k3 d1 m1 d8 k3, PS) | 43% | –
TCCCAACCAAACTTCC (sugars k3 d9 k3 e1, PS) | 24% | –
TCCCAACCAAACTTCC (sugars kkdddddddddkekek, PS) | 27% | –

Sequence | target mRNA inhibition (1 µM) | further results
TCCCCTCAAATAGCCT (sugars k3 d10 k3, PS) | 60% | –
TCCTAGGATGTTGACC (sugars k3 d10 k3, PS) | 0% | –
TCCTATATACATCCAA (sugars k3 d10 k3, PS) | 45% | –
TCCTGTGTTAGCTTTA (sugars kkdddddddddkekek, PS) | 79% | target mRNA inhibition (0.02 µM): 18%; target mRNA inhibition (0.078 µM): 29%; target mRNA inhibition (0.313 µM): 54%; target mRNA inhibition (1.25 µM): 71%; target mRNA inhibition (5 µM): 86%
TCCTTATACTGAAGGC (sugars k3 d10 k3, PS) | 22% | –
TCGATCCTATATACAT (sugars k3 d10 k3, PS) | 40% | –
TCTAAGTTAGCCCCCA (sugars k3 d9 k3 e1, PS) | 0% | –
TCTAAGTTAGCCCCCA (sugars k3 d10 k3, PS) | 36% | –
TCTACAAAACTGGTAT (sugars k3 d10 k3, PS) | 9% | –
TCTACATGGATCCAAC (sugars k3 d10 k3, PS) | 26% | –
TCTAGAATTAAGGGCT (sugars k3 d10 k3, PS) | 45% | –
TCTAGGAGATATAACA (sugars k3 d10 k3, PS) | 48% | –
TCTATACAAAGGCAGT (sugars k3 d10 k3, PS) | 53% | –
TCTCAGAGTTCAGGCA (sugars k3 d10 k3, PS) | 54% | –
TCTCCAATACAGGCCA (sugars k3 d10 k3, PS) | 21% | –
TCTCTAAAGCAGGCTA (sugars k3 d10 k3, PS) | 60% | –
TCTCTCCATCATCGAT (sugars k3 d10 k3, PS) | 24% | –
TCTCTTAGCTGTGCAC (sugars k3 d9 k3 e1, PS) | 69% | –
TCTCTTAGCTGTGCAC (sugars kkdddddddddkekek, PS) | 36% | –
TCTCTTGACAATGGTT (sugars k3 d9 k3 e1, PS) | 84% | target mRNA inhibition (0.02 µM): 0%; target mRNA inhibition (0.078 µM): 23%; target mRNA inhibition (0.313 µM): 47%; target mRNA inhibition (1.25 µM): 66%; target mRNA inhibition (5 µM): 79%
TCTCTTGGGTCCATTG (sugars k3 d10 k3, PS) | 63% | –
TCTGTATAGCTGCATT (sugars k3 d10 k3, PS) | 47% | –
TCTGTCTCCAATACAG (sugars k3 d10 k3, PS) | 13% | –
TCTTAAGATACCCAGG (sugars k3 d9 k3 e1, PS) | 48% | –
TCTTAGCTGTGCACTC (sugars k3 d10 k3, PS) | 69% | –

Sequence | target mRNA inhibition (1 µM) | further results
TCTTATAAGACTATAA (sugars k3 d10 k3, PS) | 17% | –
TCTTATCCACACCTTC (sugars k3 d10 k3, PS) | 31% | –
TCTTATCTTGGGCACC (sugars k3 d10 k3, PS) | 44% | –
TCTTCACCTGATTTAG (sugars k3 d10 k3, PS) | 24% | –
TCTTGACAATGGTTGA (sugars k3 d9 k3 e1, PS) | 61% | –
TGAAATTGATACACCA (sugars k3 d10 k3, PS) | 58% | –
TGAACAGTCTTAAACC (sugars k3 d9 k3 e1, PS) | 61% | –
TGAACAGTCTTAAACC (sugars kkdddddddddkekek, PS) | 34% | –
TGAACATACATTGTTG (sugars k3 d10 k3, PS) | 29% | –
TGAAGATTAGTTAACC (sugars k3 d10 k3, PS) | 21% | –
TGAATCATGATTGAAT (sugars k3 d10 k3, PS) | 38% | –
TGACAATGGTTGATAG (sugars k3 d9 k3 e1, PS) | 38% | –
TGACAATGTGCAGCTC (sugars k3 d10 k3, PS) | 64% | –
TGACATAACTACTTCA (sugars k3 d10 k3, PS) | 22% | –
TGACTAAGGAGCTAGA (sugars k3 d10 k3, PS) | 31% | –
TGACTAATGCAAGATT (sugars k3 d10 k3, PS) | 45% | –
TGAGAAGGCGGTATCA (sugars k3 d10 k3, PS) | 20% | –
TGAGAATTTAAGAGGG (sugars k3 d10 k3, PS) | 25% | –
TGAGATAAAGCTGCCT (sugars k3 d10 k3, PS) | 63% | –
TGAGATGGGCAAGGCC (sugars k3 d10 k3, PS) | 53% | –
TGAGTTACATTACAGC (sugars k3 d10 k3, PS) | 90% | target mRNA inhibition (0.02 µM): 16%; target mRNA inhibition (0.078 µM): 34%; target mRNA inhibition (0.313 µM): 72%; target mRNA inhibition (1.25 µM): 86%; target mRNA inhibition (5 µM): 89%
TGATACACCAATGCAG (sugars k3 d1 m1 d8 k3, PS) | 38% | –
TGATACACCAATGCAG (sugars k3 d9 k3 e1, PS) | 58% | –
TGATACACCAATGCAG (sugars kkdddddddddkekek, PS) | 62% | –
TGATATTCTGTGGCAT (sugars k3 d9 k3 e1, PS) | 74% | target mRNA inhibition (0.02 µM): 8%; target mRNA inhibition (0.078 µM): 23%; target mRNA inhibition (0.313 µM): 40%; target mRNA inhibition (1.25 µM): 67%; target mRNA inhibition (5 µM): 90%

Sequence | target mRNA inhibition (1 µM) | further results
TGATCTTAAGGATCAT (sugars k3 d10 k3, PS) | 0% | –
TGATTAAGCAGAATTG (sugars k3 d10 k3, PS) | 57% | –
TGATTAATCTTGATGC (sugars k3 d10 k3, PS) | 15% | –
TGATTTAGTTGGTAGC (sugars k3 d10 k3, PS) | 79% | target mRNA inhibition (0.02 µM): 7%; target mRNA inhibition (0.078 µM): 43%; target mRNA inhibition (0.313 µM): 73%; target mRNA inhibition (1.25 µM): 84%; target mRNA inhibition (5 µM): 94%
TGCAAAATGTGATGCC (sugars k3 d10 k3, PS) | 69% | –
TGCAATAGTACTATAG (sugars k3 d10 k3, PS) | 24% | –
TGCAGAAATTCACCTT (sugars k3 d10 k3, PS) | 54% | –
TGCAGCATTGATTCGA (sugars k3 d1 m1 d8 k3, PS) | 65% | –
TGCAGCATTGATTCGA (sugars k3 d10 k3, PS) | 47% | –
TGCAGCATTGATTCGA (sugars kkdddddddddkekek, PS) | 42% | –
TGCAGTTATTAGAAGT (sugars k3 d10 k3, PS) | 46% | –
TGCATCTTAAGATACC (sugars kkdddddddddkekek, PS) | 24% | –
TGCCTGCCTATTCCAT (sugars k3 d10 k3, PS) | 40% | –
TGCTACTCTAGGAGAT (sugars k3 d10 k3, PS) | 60% | –
TGCTACTTGAACAGTC (sugars k3 d1 m1 d8 k3, PS) | 65% | –
TGCTACTTGAACAGTC (sugars k3 d10 k3, PS) | 81% | target mRNA inhibition (0.02 µM): 3%; target mRNA inhibition (0.078 µM): 22%; target mRNA inhibition (0.313 µM): 49%; target mRNA inhibition (1.25 µM): 78%; target mRNA inhibition (5 µM): 89%
TGCTACTTGAACAGTC (sugars kkdddddddddkekek, PS) | 64% | –
TGCTAGTGCCAAACCA (sugars kkdddddddddkekek, PS) | 58% | –
TGCTATAGTAATCACA (sugars k3 d10 k3, PS) | 65% | –
TGCTGCATTAATGCCA (sugars k3 d9 k3 e1, PS) | 6% | –
TGCTGCATTAATGCCA (sugars kkdddddddddkekek, PS) | 30% | –
TGCTGCTAGTGCCAAA (sugars k3 d10 k3, PS) | 58% | –
TGGAACAATATGGGAT (sugars k3 d10 k3, PS) | 46% | –
